System: mice (wild-type and MAS receptor gene homozygous mutant)
Test: Metrazol administration test (metrazol dose testing, seizure susceptibility)
Type: in vivo, mouse
Settings: for Dose (mg/kg body weight), Observable: T/C / Dose (mg/kg body weight), Observable: Death / Dose (mg/kg body weight), Observable: Twitch / Dose (mg/kg body weight), Observable: Extension: F2N1 mice; for Dose (mg/kg body weight), Observable: T/C: metrazol dose to T/C seizure; for Dose (mg/kg body weight), Observable: Death: metrazol dose to death; for Dose (mg/kg body weight), Observable: Twitch: metrazol dose to first twitch; for Dose (mg/kg body weight), Observable: Extension: metrazol dose to tonic extension
Method: A metrazol administration test can be used to screen animals for varying susceptibilities to seizures or similar events. For example, a 5 mg/ml solution of metrazol can be infused through the tail vein of a mouse at a rate of, e.g., approximately 0.375 ml/min. The infusion will cause all mice to experience seizures, followed by death. Those mice that enter the seizure stage the soonest are believed to be more prone to seizures.
The transgenic mice were analyzed for phenotypic changes. […] These characteristics response parameters are: (1) first twitch; (2) tonic/clonic seizure; (3) tonic extension, […]; and (4) death.

[1] = genotype −/− (MAS homozygous mutant)

C1CCc2nnnn2CC1 [metrazol]
Dose (mg/kg body weight), Observable: T/C (genotype +/+ (wild-type)): 37.94 mg/kg body weight
Dose (mg/kg body weight), Observable: Death (genotype +/+ (wild-type)): 96.27 mg/kg body weight
Dose (mg/kg body weight), Observable: Twitch (genotype +/+ (wild-type)): 25.59 mg/kg body weight
Dose (mg/kg body weight), Observable: Extension (genotype +/+ (wild-type)): 75.60 mg/kg body weight
Dose (mg/kg body weight), Observable: T/C [1]: 45.28 mg/kg body weight
Dose (mg/kg body weight), Observable: Death [1]: 138.55 mg/kg body weight
Dose (mg/kg body weight), Observable: Twitch [1]: 33.95 mg/kg body weight
Dose (mg/kg body weight), Observable: Extension [1]: 115.89 mg/kg body weight
response threshold to metrazol (homozygous mutants as compared to wild-type animals): increased

Reference: patent US20020088018A1, “Transgenic mice containing MAS orphan receptor gene disruptions” (priority 2000, published 2002)
